Experimental findings from ChEMBL document CHEMBL1155038, “Discovery of phosphonic diamide prodrugs and their use for the oral delivery of a series of fructose 1,6-bisphosphatase inhibitors” (J Med Chem, 2008) are described below.

Some results are limits rather than exact numbers.

Series [1] deals with Rattus norvegicus. As to the kind of experiment: Bioavailability in fasted Sprague-Dawley rat assessed as urinary excretion of phosphoric acid at 10 to 50 mg/kg, po after 24 hrs by HPLC relative to iv dosed phosphoric acid. Type of series: ADME, organism-based, Urine. The note with it: in vivo.
Series [2] has as its system Rattus norvegicus. As to the kind of experiment: Reduction in blood glucose level in fasted Sprague-Dawley rat at 30 mg/kg, po relative to control. The series is classed as functional. Also on record: scale not given: the % may be the effect or the level left.
The test system of series [3] is Rattus norvegicus. As to the kind of experiment: Reduction in blood glucose level in Sprague-Dawley rat assessed as time of maximum glucose lowering at 30 mg/kg, po. The series is classed as functional.
The subject of a further series is Hepatocyte. As to the kind of experiment: Drug uptake in cryopreserved human hepatocytes per million cells at 100 uM after 60 mins. Type of series: ADME, cell-based. As to conditions: 1 h.
Series [4] in a line: Stability in human liver S9 fractions assessed as prodrug conversion per mg of protein. The series is classed as ADME, subcellular, S9 fraction.
Series [5] deals with Rattus norvegicus. As to the kind of experiment: Reduction in blood glucose level in fasted Sprague-Dawley rat at <=10 mg/kg, iv relative to control. The series is classed as functional. The arrangement: scale not given: the % may be the effect or the level left.

For `CCOC(=O)[C@H](C)NP(=O)(N[C@@H](C)C(=O)OCC)c1ccc(-c2nc(N)sc2CC(C)C)o1`, in the series with Rattus norvegicus [1], the F is 22%. This compound also came in with an Activity in the series with Rattus norvegicus [2] of 59%. Further, in the series on Rattus norvegicus [3], the Time stood at 2 h. In the series with Hepatocyte, this compound returned a Drug uptake of 7 nmol. For the same compound, the Stability in series [4] worked out at 0.004 nM/min. For the compound `CCOC(=O)CNP(=O)(NCC(=O)OCC)c1ccc(-c2nc(N)sc2CC(C)C)o1`, the F in the series with Rattus norvegicus [1] was determined as 26%. The Activity in the series with Rattus norvegicus [2] worked out at 51%. Also, the Time in the series with Rattus norvegicus [3] was found to be 2 h.

`CC(C)Cc1sc(N)nc1-c1ccc(P(=O)(OCOC(=O)C(C)(C)C)OCOC(=O)C(C)(C)C)o1`: the F in the series on Rattus norvegicus [1] came out at 11%. Still for that read-out and setting: under `CC(C)Cc1sc(N)nc1-c1ccc(P(=O)(NCC(=O)OCc2ccccc2)NCC(=O)OCc2ccccc2)o1` stands 17%. On to `CCCSc1sc(N)nc1-c1ccc(P(=O)(NC(C)(C)C(=O)OCC)NC(C)(C)C(=O)OCC)o1`, for which the F with Rattus norvegicus [1] stood at 31%. The same compound returned an Activity in the series on Rattus norvegicus [2] of 51%. The Time in the series on Rattus norvegicus [3] came to 2 h.

In the case of `CCCSc1sc(N)nc1-c1ccc(P(=O)(N[C@@H](COC(C)(C)C)C(=O)OC)N[C@@H](COC(C)(C)C)C(=O)OC)o1`, the F with Rattus norvegicus [1] amounted to 9%. Still for that read-out and setting: under `CC(C)Cc1sc(N)nc1-c1ccc(P(=O)(NCC(=O)OC(C)(C)C)NCC(=O)OC(C)(C)C)o1` stands 9%; under `CCCSc1sc(N)nc1-c1ccc(P(=O)(N[C@@H](C)C(=O)OCC)N[C@@H](C)C(=O)OCC)o1`, 17%. As to `CCOC(=O)c1sc(N)nc1-c1ccc(P(=O)(N[C@H](C(=O)OCC)C(C)C)N[C@H](C(=O)OCC)C(C)C)o1`, in the series with Rattus norvegicus [1], the F came out at 6%. Same read-out and setting: in the case of `CCOC(=O)[C@H](CC(C)C)NP(=O)(N[C@@H](CC(C)C)C(=O)OCC)c1ccc(-c2nc(N)sc2CC(C)C)o1` it was 3%; in that of `CCOC(=O)c1sc(N)nc1-c1ccc(P(=O)(NC2(C(=O)OCC)CCCC2)NC2(C(=O)OCC)CCCC2)o1`, 5%.

With `CC(C)COC(=O)[C@H](C)NP(=O)(N[C@@H](C)C(=O)OCC(C)C)c1ccc(-c2nc(N)sc2CC(C)C)o1`, in the series on Rattus norvegicus [1], the F is reported as 10%. For `CCOC(=O)[C@H](C)NP(=O)(N[C@@H](C)C(=O)OCC)c1ccc(-c2nc(N)sc2-c2ccccc2)o1`, the F in the series with Rattus norvegicus [1] is given as 31%. The same measure, in the same setting: under `CCCSc1sc(N)nc1-c1ccc(P(=O)(NC2(C(=O)OCC)CCCC2)NC2(C(=O)OCC)CCCC2)o1` stands 49%; under `CC(C)Cc1sc(N)nc1-c1ccc(P(=O)(N[C@@H](C)C(=O)OCC(C)(C)C)N[C@@H](C)C(=O)OCC(C)(C)C)o1`, 18%.

Regarding `CCCSc1sc(N)nc1-c1ccc(P(=O)(N[C@@H](C)C(=O)OC(C)C)N[C@@H](C)C(=O)OC(C)C)o1`, in the series on Rattus norvegicus [1], the F is reported as 17%. On to `CCCOC(=O)[C@H](C)NP(=O)(N[C@@H](C)C(=O)OCCC)c1ccc(-c2nc(N)sc2SCCC)o1`, for which, in the series on Rattus norvegicus [1], the F was found to be 19%. With `CC(C)Cc1sc(N)nc1-c1ccc(P(=O)(N[C@@H](C)C(=O)OC(C)C)N[C@@H](C)C(=O)OC(C)C)o1`, the F in the series with Rattus norvegicus [1] is 31%. Besides, the Activity in the series on Rattus norvegicus [2] stood at 63%. Moreover, the Time with Rattus norvegicus [3] came out at 2 h. Consider `CCCOC(=O)[C@H](C)NP(=O)(N[C@@H](C)C(=O)OCCC)c1ccc(-c2nc(N)sc2CC(C)C)o1`, for which, in the series on Rattus norvegicus [1], the F was 16%.

In the case of `CCOC(=O)c1sc(N)nc1-c1ccc(P(=O)(N[C@@H](CC)C(=O)OCC)N[C@@H](CC)C(=O)OCC)o1`, the F in the series with Rattus norvegicus [1] was 5%. As for `CCC[C@H](NP(=O)(N[C@@H](CCC)C(=O)OCC)c1ccc(-c2nc(N)sc2C(=O)OCC)o1)C(=O)OCC`, the F in the series on Rattus norvegicus [1] is 4%. Regarding `CC(C)OC(=O)[C@H](C)NP(=O)(N[C@@H](C)C(=O)OC(C)C)c1ccc(-c2nc(N)sc2-c2ccccc2)o1`, the F in the series on Rattus norvegicus [1] amounted to 23%. The Activity in the series with Rattus norvegicus [2] was 19%. Moreover, the Time with Rattus norvegicus [3] was found to be 5 h.

As for `CCOC(=O)C(C)(C)NP(=O)(NC(C)(C)C(=O)OCC)c1ccc(-c2nc(N)sc2-c2ccccc2)o1`, the F with Rattus norvegicus [1] amounted to 30%. In addition, the Activity with Rattus norvegicus [2] came out at 25%. The Time in the series with Rattus norvegicus [3] was found to be 2 h. In the same order, the values of `CCOC(=O)[C@H](C)NP(=O)(N[C@@H](C)C(=O)OCC)c1ccc(-c2nc(N)sc2SC)o1` are 23%, 38% and 2 h. In the case of `CCOC(=O)c1sc(N)nc1-c1ccc(P(=O)(N[C@@H](C)C(=O)OCC)N[C@@H](C)C(=O)OCC)o1`, the F in the series with Rattus norvegicus [1] is 30%. In addition, the Activity in the series on Rattus norvegicus [2] worked out at 12%. For the same compound, the Time in the series with Rattus norvegicus [3] worked out at 3 h.

For the compound `CCCSc1sc(N)nc1-c1ccc(P(=O)(NC2(C(=O)OCC)CCCCC2)NC2(C(=O)OCC)CCCCC2)o1`, the F in the series with Rattus norvegicus [1] is recorded as 1%. For `CCCCOC(=O)[C@H](C)NP(=O)(N[C@@H](C)C(=O)OCCCC)c1ccc(-c2nc(N)sc2SCCC)o1`, the F in the series on Rattus norvegicus [1] was 2%.

Regarding `CCOC(=O)[C@@H](NP(=O)(N[C@H](C(=O)OCC)C(C)C)c1ccc(-c2nc(N)sc2CC(C)C)o1)C(C)C`, the F in the series with Rattus norvegicus [1] worked out at 7%.

Consider `CCOC(=O)[C@H](CC)NP(=O)(N[C@@H](CC)C(=O)OCC)c1ccc(-c2nc(N)sc2CC(C)C)o1`, for which the F in the series with Rattus norvegicus [1] is listed as 8%. Consider `CCOC(=O)C(C)(C)NP(=O)(c1ccc(-c2nc(N)sc2CC(C)C)o1)N1CCOCC1` (configuration not stated), for which the F with Rattus norvegicus [1] was determined as 32%. Take `COC(=O)CNP(=O)(COCCn1cnc2c(N)ncnc21)NCC(=O)OC`: in the series with Rattus norvegicus [1], the F is given as 2%. Consider `CSc1sc(N)nc1-c1ccc(P(=O)(O)O)o1`, for which the Activity in the series on Rattus norvegicus [5] was >50%. As for `CCOC(=O)C(C)(C)NP(=O)(COCCn1cnc2c(N)ncnc21)NC(C)(C)C(=O)OCC`, in the series with Rattus norvegicus [1], the F is recorded as 4%. Turning to `CC(C)Cc1sc(N)nc1-c1ccc(P(=O)(OCOC(=O)OC(C)C)OCOC(=O)OC(C)C)o1`, the F in the series on Rattus norvegicus [1] was determined as 13%. Same read-out and setting: under `CC(C)Cc1sc(N)nc1-c1ccc(P(=O)(N[C@@H](C)C(=O)OCc2ccccc2)N[C@@H](C)C(=O)OCc2ccccc2)o1` stands 11%. On to `CCOC(=O)c1sc(N)nc1-c1ccc(P(=O)(O)O)o1`, for which the Activity in the series on Rattus norvegicus [5] is listed as >50%. Same read-out and setting: in the case of `Nc1nc(-c2ccc(P(=O)(O)O)o2)c(-c2ccccc2)s1` it was >50%. On to `CCOC(=O)[C@H](CSCc1ccccc1)NP(=O)(N[C@@H](CSCc1ccccc1)C(=O)OCC)c1ccc(-c2nc(N)sc2CC(C)C)o1`, for which the F with Rattus norvegicus [1] was 5%. The same measure, in the same setting: under `CCOC(=O)[C@H](Cc1ccccc1)NP(=O)(N[C@@H](Cc1ccccc1)C(=O)OCC)c1ccc(-c2nc(N)sc2CC(C)C)o1` stands 3%; under `CCCSc1sc(N)nc1-c1ccc(P(=O)(N[C@@H](C)C(=O)OC2CCCCCC2)N[C@@H](C)C(=O)OC2CCCCCC2)o1`, 12%. In the case of `CC(C)CNP(=O)(NCC(C)C)c1ccc(-c2nc(N)sc2CC(C)C)o1`, in the series on Rattus norvegicus [1], the F was found to be 0%. For `CCCSc1sc(N)nc1-c1ccc(P(=O)(O)O)o1`, the Activity in the series on Rattus norvegicus [5] is >50%.

Regarding `CCOC(=O)C1(NP(=O)(NC2(C(=O)OCC)CCCC2)c2ccc(-c3nc(N)sc3CC(C)C)o2)CCCC1`, the F in the series with Rattus norvegicus [1] worked out at 27%. In the series on Rattus norvegicus [2], this compound came in with an Activity of 20%. Further, in the series with Rattus norvegicus [3], the Time came to 2 h.

As to `COC(=O)[C@@H](C)NP(=O)(N[C@H](C)C(=O)OC)c1ccc(-c2nc(N)sc2CC(C)C)o1`, in the series on Rattus norvegicus [1], the F is listed as 22%. In the series on Rattus norvegicus [2], the Activity stood at 26%. Further, the Time in the series with Rattus norvegicus [3] worked out at 2 h.

In the case of `CCOC(=O)C(C)(C)NP(=O)(NC(C)(C)C(=O)OCC)c1ccc(-c2nc(N)sc2SC)o1`, in the series on Rattus norvegicus [1], the F is reported as 45%. This compound registered an Activity in the series with Rattus norvegicus [2] of 80%. Moreover, the Time in the series with Rattus norvegicus [3] was 2 h.

As for `CCCSc1sc(N)nc1-c1ccc(P(=O)(N[C@@H](CCC)C(=O)OCC)N[C@@H](CCC)C(=O)OCC)o1`, the F in the series with Rattus norvegicus [1] is listed as 6%.

Consider `CCCSc1sc(N)nc1-c1ccc(P(=O)(N[C@@H](C)C(=O)OC(C)(C)C)N[C@@H](C)C(=O)OC(C)(C)C)o1`, for which, in the series on Rattus norvegicus [1], the F was found to be 4%. For the compound `CCOC(=O)C(C)(C)NP(=O)(NC(C)(C)C(=O)OCC)c1ccc(-c2nc(N)sc2CC(C)C)o1`, the F in the series with Rattus norvegicus [1] turned out to be 47%. The compound further gave an Activity in the series on Rattus norvegicus [2] of 45%. Besides, the Time in the series with Rattus norvegicus [3] was determined as 2 h.

Regarding `CCCSc1sc(N)nc1-c1ccc(P(=O)(N[C@H](C(=O)OCC)C(C)C)N[C@H](C(=O)OCC)C(C)C)o1`, in the series on Rattus norvegicus [1], the F came out at 6%. With `CCCSc1sc(N)nc1-c1ccc(P(=O)(N[C@@H](CC)C(=O)OCC)N[C@@H](CC)C(=O)OCC)o1`, the F in the series on Rattus norvegicus [1] is 6%.

Regarding `CCOC(=O)C(C)(C)NP(=O)(c1ccc(-c2nc(N)sc2CC(C)C)o1)N1CCCC1` (configuration not stated), in the series with Rattus norvegicus [1], the F is recorded as 37%. As to `CCOC(=O)C(C)NP(=O)(NC(C)C(=O)OCC)c1ccc(-c2nc(N)sc2CC(C)C)o1` (mixture of isomers), the F in the series with Rattus norvegicus [1] is 28%. In the series with Rattus norvegicus [2], the Activity is on record as 52%. Also, the Time in the series with Rattus norvegicus [3] turned out to be 2 h. Turning to `CC(C)Cc1sc(N)nc1-c1ccc(P(=O)(O)O)o1` [MB-05032], the F with Rattus norvegicus [1] was 2%. Further, the Activity in the series with Rattus norvegicus [5] was >50%.
